Test results as given in patent publication US10294202B2, “Pyrrolidinones as herbicides” (FMC Corporation, priority 2013, dated 2019).
Read-outs that look alike come from different tables or passages of the source.

What was measured:
barnyardgrass = assay: Test C flooded paddy test; format: in vivo, Echinochloa crus-galli; settings: Flood
Outline: (§1)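 Visual ratings from 0, no effect, to 100, complete control, were made against untreated controls after 13–15 greenhouse days. Compounds had gone straight into paddy water 3 cm above the soil, kept at that depth, on 2-leaf-stage plants.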

morningglory = assay: Test A pre-/postemergence herbicide test; format: in vivo, Ipomoea spp.; settings: for pest or weed control at 1000 g/ha: 1000 g ai/ha
Outline: (§2)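 Seeds in loam–sand blend received preemergence directed soil spray; separately, plants 2–10 cm at one- to two-leaf stage received postemergence spray, both with test chemicals in non-phytotoxic solvent with surfactant. After ~10 days in greenhouse, injury rated visually against untreated controls, 0 (no effect) to 100 (complete control).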

ducksalad = assay: Test C flooded paddy test; format: in vivo, Heteranthera limosa; settings: Flood
Outline: as §1

crabgrass, large = assay: Test A pre-/postemergence herbicide test; format: in vivo, Digitaria sanguinalis; settings: for pest or weed control at 1000 g/ha: 1000 g ai/ha
Outline: as §2

chickweed = assay: Test C postemergence herbicide test; format: in vivo, Stellaria media
Outline: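 Response is scored visually on a 0–100 scale (100 = complete control) relative to untreated controls, 13 to 15 days after treatment. Plants were sprayed postemergence at the 1- to 4-leaf stage (2 to 18 cm tall) and kept in a greenhouse.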

velvetleaf = assay: Test A pre-/postemergence herbicide test; format: in vivo, Abutilon theophrasti; settings: for pest or weed control at 1000 g/ha: 1000 g ai/ha
Outline: as §2

kochia = assay: Test A pre-/postemergence herbicide test; format: in vivo, Kochia scoparia; settings: for Plant response rating, Kochia: 0 to 100 scale
Outline: as §2

ryegrass, Italian = assay: Test A pre-/postemergence herbicide test; format: in vivo, Lolium multiflorum; settings: for Plant response rating, Ryegrass, Italian: 0 to 100 scale
Outline: as §2

galium = assay: Test A postemergence herbicide test; format: in vivo, Galium aparine
Outline: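 Injury was rated visually about 10 days after treatment on a 0 (no effect) to 100 (complete control) scale, compared with untreated plants. Test chemicals were sprayed postemergence onto greenhouse plants 2–10 cm high at one to two leaves, grown in a loam–sand blend.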

ragweed = assay: Test A pre-/postemergence herbicide test; format: in vivo, Ambrosia elatior; settings: for Plant response rating, Ragweed: 0 to 100 scale
Outline: as §2

[1] = 31 g ai/ha, scale of 0 to 100 where 0 is no effect and 100 is complete control, 13 to 15 days
[2] = 62 g ai/ha, scale of 0 to 100 where 0 is no effect and 100 is complete control, 13 to 15 days
[3] = 125 g ai/ha, scale of 0 to 100 where 0 is no effect and 100 is complete control, 13 to 15 days
[4] = 31 g ai/ha, scale 0 (no effect) to 100 (complete control)
[5] = 62 g ai/ha, scale 0 to 100 (0 no effect, 100 complete control)
[6] = 125 g ai/ha, scale 0 to 100 (0 no effect, 100 complete control)
[7] = 250 g ai/ha, scale 0 to 100 (0 no effect, 100 complete control)
[8] = Postemergence, 125 g ai/ha, 0 to 100 scale, 0 no effect, 100 complete control
[9] = Postemergence, 500 g ai/ha, 0 to 100 scale (0 no effect, 100 complete control)
[10] = Preemergence, 125 g ai/ha, visual rating on 0 to 100 scale (0 no effect, 100 complete control)
[11] = preemergence, 500 g ai/ha, 0 to 100 scale
[12] = 125 g ai/ha, visual rating, 0 no effect, 100 complete control, approximately 10 days, preemergence
[13] = Postemergence, 125 g ai/ha, 0 is no effect, 100 is complete control
[14] = preemergence, 500 g ai/ha, 0 is no effect and 100 is complete control
[15] = 250 g ai/ha, scale of 0 to 100 where 0 is no effect and 100 is complete control, 13 to 15 days

O=C1NCC(c2ccc(F)c(F)c2)C1C(=O)Nc1cccc(F)c1F (stereo not shown) [Compound 17, N-(2,3-difluorophenyl)-4-(3,4-difluorophenyl)-2-oxo-3-pyrrolidinecarboxamide]
Plant response rating, Barnyardgrass (barnyardgrass; [1]): 0 | Plant response rating, Barnyardgrass (barnyardgrass; [2]): 0 | Plant response rating, Barnyardgrass (barnyardgrass; [3]): 20 | Plant response rating, Barnyardgrass (barnyardgrass; 250 g ai/ha, scale 0 to 100): 25 | pest or weed control at 1000 g/ha (morningglory; Ipomoea, post-emergence, 240 h, Postemergence, 0 to 100 scale (0 no effect, 100 complete control), read-out: Plant response rating, Morningglory): 0% | pest or weed control at 1000 g/ha (morningglory; Ipomoea, pre-emergence, 240 h, Preemergence, visual rating on 0 to 100 scale (0 no effect, 100 complete control), approx. 10 days, read-out: Plant response rating, Morningglory): 30% | Plant response rating, Ducksalad (ducksalad; [1]): 40 | Plant response rating, Ducksalad (ducksalad; [2]): 80 | Plant response rating, Ducksalad (ducksalad; [3]): 100 | Plant response rating, Ducksalad (ducksalad; 250 g ai/ha, scale 0 to 100): 100 | pest or weed control at 1000 g/ha (crabgrass, large; Digitaria sanguinalis, post-emergence, 240 h, Postemergence, 0 to 100 scale (0 no effect, 100 complete control), read-out: Plant response rating, Crabgrass, Large): 90% | pest or weed control at 1000 g/ha (crabgrass, large; Digitaria sanguinalis, pre-emergence, 240 h, Preemergence, visual rating on 0 to 100 scale (0 no effect, 100 complete control), approx. 10 days, read-out: Plant response rating, Crabgrass, Large): 90% | Plant response rating, Chickweed (chickweed; [4]): 0 | Plant response rating, Chickweed (chickweed; [5]): 0 | Plant response rating, Chickweed (chickweed; [6]): 0 | Plant response rating, Chickweed (chickweed; [7]): 10 | pest or weed control at 1000 g/ha (velvetleaf; Abutilon theophrasti, post-emergence, 240 h, Postemergence, 0 to 100 scale (0 no effect, 100 complete control), read-out: Plant response rating, Velvetleaf): 50% | pest or weed control at 1000 g/ha (velvetleaf; Abutilon theophrasti, pre-emergence, 240 h, Preemergence, visual rating on 0 to 100 scale (0 no effect, 100 complete control), approx. 10 days, read-out: Plant response rating, Velvetleaf): 40%

O=C1NCC(c2ccc(Cl)c(F)c2)C1C(=O)Nc1cccc(F)c1F (stereo not shown) [Compound 52]
Plant response rating, Barnyardgrass (barnyardgrass; [1]): 0 | Plant response rating, Barnyardgrass (barnyardgrass; [2]): 0 | Plant response rating, Barnyardgrass (barnyardgrass; [3]): 0 | Plant response rating, Barnyardgrass (barnyardgrass; 250 g ai/ha, scale 0 to 100): 0 | Plant response rating, Morningglory (morningglory; [8]): 0 | Plant response rating, Morningglory (morningglory; [9]): 0 | Morningglory plant response rating (morningglory; [10]): 0 | Plant response rating, Morningglory (morningglory; [11]): 0 | Plant response rating, Ducksalad (ducksalad; [1]): 40 | Plant response rating, Ducksalad (ducksalad; [2]): 40 | Plant response rating, Ducksalad (ducksalad; [3]): 75 | Plant response rating, Ducksalad (ducksalad; 250 g ai/ha, scale 0 to 100): 95 | Plant response rating, Crabgrass, Large (crabgrass, large; [8]): 80 | Plant response rating, Crabgrass, Large (crabgrass, large; [9]): 80 | Crabgrass, Large plant response rating (crabgrass, large; [10]): 90 | Plant response rating, Crabgrass, Large (crabgrass, large; [11]): 90 | Plant response rating, Chickweed (chickweed; [5]): 25 | Plant response rating, Chickweed (chickweed; [6]): 45 | Plant response rating, Chickweed (chickweed; [7]): 60 | Plant response rating, Velvetleaf (velvetleaf; [8]): 0 | Plant response rating, Velvetleaf (velvetleaf; [9]): 0 | Velvetleaf plant response rating (velvetleaf; [10]): 0 | Plant response rating, Velvetleaf (velvetleaf; [11]): 20

O=C1NCC(c2ccc(C(F)(F)F)cc2)C1C(=O)Nc1cccc(F)c1F (stereo not shown) [Compound 80, N-(2,3-difluorophenyl)-2-oxo-4-[4-(trifluoromethyl)phenyl]-3-pyrrolidinecarboxamide]
Plant response rating, Barnyardgrass (barnyardgrass; [1]): 0 | Plant response rating, Barnyardgrass (barnyardgrass; [2]): 0 | Plant response rating, Barnyardgrass (barnyardgrass; [3]): 0 | Plant response rating, Barnyardgrass (barnyardgrass; 250 g ai/ha, scale 0 to 100): 20 | pest or weed control at 125 g/ha (morningglory; Ipomoea, post-emergence, 240 h, Postemergence, 125 g ai/ha, 0 to 100 scale, 0 no effect, 100 complete control, read-out: Plant response rating, Morningglory): 0% | pest or weed control at 500 g/ha (morningglory; Ipomoea, post-emergence, 240 h, Postemergence, 500 g ai/ha, 0 to 100 scale (0 no effect, 100 complete control), read-out: Plant response rating, Morningglory): 0% | pest or weed control at 500 g/ha (morningglory; Ipomoea, pre-emergence, 240 h, preemergence, 500 g ai/ha, 0 to 100 scale, read-out: Plant response rating, Morningglory): 0% | Morningglory plant response rating (morningglory; [10]): 0 | Plant response rating, Ducksalad (ducksalad; [1]): 70 | Plant response rating, Ducksalad (ducksalad; [2]): 70 | Plant response rating, Ducksalad (ducksalad; [3]): 100 | Plant response rating, Ducksalad (ducksalad; 250 g ai/ha, scale 0 to 100): 100 | pest or weed control at 125 g/ha (crabgrass, large; Digitaria sanguinalis, post-emergence, 240 h, Postemergence, 125 g ai/ha, 0 to 100 scale, 0 no effect, 100 complete control, read-out: Plant response rating, Crabgrass, Large): 80% | pest or weed control at 500 g/ha (crabgrass, large; Digitaria sanguinalis, post-emergence, 240 h, Postemergence, 500 g ai/ha, 0 to 100 scale (0 no effect, 100 complete control), read-out: Plant response rating, Crabgrass, Large): 90% | pest or weed control at 500 g/ha (crabgrass, large; Digitaria sanguinalis, pre-emergence, 240 h, preemergence, 500 g ai/ha, 0 to 100 scale, read-out: Plant response rating, Crabgrass, Large): 90% | Crabgrass, Large plant response rating (crabgrass, large; [10]): 90 | Plant response rating, Chickweed (chickweed; [4]): 70 | Plant response rating, Chickweed (chickweed; [5]): 85 | Plant response rating, Chickweed (chickweed; [6]): 90 | Plant response rating, Chickweed (chickweed; [7]): 90 | pest or weed control at 125 g/ha (velvetleaf; Abutilon theophrasti, post-emergence, 240 h, Postemergence, 125 g ai/ha, 0 to 100 scale, 0 no effect, 100 complete control, read-out: Plant response rating, Velvetleaf): 10% | pest or weed control at 500 g/ha (velvetleaf; Abutilon theophrasti, post-emergence, 240 h, Postemergence, 500 g ai/ha, 0 to 100 scale (0 no effect, 100 complete control), read-out: Plant response rating, Velvetleaf): 60% | pest or weed control at 500 g/ha (velvetleaf; Abutilon theophrasti, pre-emergence, 240 h, preemergence, 500 g ai/ha, 0 to 100 scale, read-out: Plant response rating, Velvetleaf): 30% | Velvetleaf plant response rating (velvetleaf; [10]): 0

O=C1NC[C@H](c2cccc(C(F)(F)F)c2)[C@H]1C(=O)Nc1ccccc1F [Compound 204, (3R,4S)—N-(2-fluorophenyl)-2-oxo-4-[3-(trifluoromethyl)phenyl]-3-pyrrolidinecarboxamide]
Plant response rating, Kochia (kochia; [12]): 0 | Plant response rating, Kochia (kochia; [13]): 20 | Kochia plant response rating (0 to 100 scale, 0 is no effect, 100 is complete control) (kochia; Postemergence, 500 g ai/ha): 60 | Plant response rating, Kochia (kochia; [14]): 80 | Plant response rating, Barnyardgrass (barnyardgrass; [3]): 50 | Plant response rating, Barnyardgrass (barnyardgrass; [15]): 70 | Plant response rating, Barnyardgrass (barnyardgrass; 500 g ai/ha, scale 0 to 100): 75 | Plant response rating, Barnyardgrass (barnyardgrass; 1000 g ai/ha, scale 0 to 100): 80 | Plant response rating, Ducksalad (ducksalad; [3]): 50 | Plant response rating, Ducksalad (ducksalad; [15]): 95 | Plant response rating, Ducksalad (ducksalad; 500 g ai/ha, scale 0 to 100): 100 | Plant response rating, Ducksalad (ducksalad; 1000 g ai/ha, scale 0 to 100): 100 | Plant response rating, Ryegrass, Italian (ryegrass, Italian; [12]): 20 | Plant response rating, Ryegrass, Italian (ryegrass, Italian; [13]): 30 | Ryegrass, Italian plant response rating (0 to 100 scale, 0 is no effect, 100 is complete control) (ryegrass, Italian; Postemergence, 500 g ai/ha): 50 | Plant response rating, Ryegrass, Italian (ryegrass, Italian; [14]): 50 | Plant response rating, Chickweed (chickweed; 31 g ai/ha, scale 0 to 100 (0 no effect, 100 complete control)): 0 | Plant response rating, Chickweed (chickweed; 62 g ai/ha, scale 0 (no effect) to 100 (complete control)): 30 | Plant response rating, Chickweed (chickweed; [6]): 55 | Plant response rating, Chickweed (chickweed; [7]): 65 | Plant response rating, Galium (galium; 125 g ai/ha, 0 to 100 scale, 0 is no effect, 100 is complete control): 50 | Galium plant response rating (0 to 100 scale, 0 is no effect, 100 is complete control) (galium; 500 g ai/ha): 60 | Plant response rating, Ragweed (ragweed; [12]): 0 | Plant response rating, Ragweed (ragweed; [13]): 0 | Ragweed plant response rating (0 to 100 scale, 0 is no effect, 100 is complete control) (ragweed; Postemergence, 500 g ai/ha): 0 | Plant response rating, Ragweed (ragweed; [14]): 80
